From patent US20020127182A1, “Paramagnetic metal ion-based macrocylic magnetization transfer contrast agents and method of use” (Board of Regents, The University of Texas System, priority 2000, published 2002)

Columns and labels:
Format in all cases: physicochemical
[1] = Proton chemical shift of bound water of Ln(1)^3+ complexes relative to bulk water (1H NMR); settings: relative to bulk water at 0 ppm
From the text: As further illustrated in Table 1, the proton chemical shifts of bound water in these lanthanide-macrocylic complexes, δ, relative to bulk water, at 0 ppm are generally highly shifted, either more than 6 ppm downfield or upfield (i.e., ±6 ppm or more), depending upon the properties of the central lanthanide ions. At 1.5 Tesla (T), a magnetic field strength presently used by many commercial MRI scanners, the exchange limit regimes, Δω•τM, of Eu(1)^3+, Tb(1)^3+, Dy(1)^3+, and Ho(1)^3+ are all greater than 1. At higher fields, however, such as 4.7 T and 11.75 T, more lanthanide complexes have exchange limit regimes greater than 1, with Δω•τM increasing as field strength increases. Therefore, favorable MT contrast effects are available for a broad range of lanthanide-macrocylic complexes over a broad range of magnetic field strengths. […]

[2] = Bound water lifetime τM^298 of Ln(1)^3+ complexes by fitting temperature dependent 17O NMR bound water line widths; exchange limit regime Δω•τM calculated; settings: for τM (bound water lifetime): Ln(1)^3+ complexes, 298 K
Experimental: A first experiment, examined the life times at 298° K, τM^298, of water molecules bound to various lanthanide-macrocylic complexes of the present invention, and having the general formula, Ln(1)^3+, where the four pendent arms R, R′, R″ and R″′ are all ethyl-acetamidoacetate (i.e., LnDOTA-4AmCE^3+), as depicted below: [drawing 4]
(§1) Individual τM^298 values were obtained by fitting the temperature dependent ^17O NMR bound water line widths according to standard exchange theory. […] Because the bulk water ^17O resonance of Yb(1) solution was relatively narrow at all temperatures, no attempt was made to determine τM^298 for this complex based on the ^17O NMR line width data from bulk water. However, a fit to the bound-water ^1H NMR line width gave a τM^298 of 5.8 μs for Yb(1), consistent with the trend shown in FIG. 3. Moreover, ^1H NMR line width fitting gave very similar results for those systems for which the bound water is directly observable.
As further illustrated in Table 1, the proton chemical shifts of bound water in these lanthanide-macrocylic complexes, δ, relative to bulk water, at 0 ppm are generally highly shifted, either more than 6 ppm downfield or upfield (i.e., ±6 ppm or more), depending upon the properties of the central lanthanide ions. At 1.5 Tesla (T), a magnetic field strength presently used by many commercial MRI scanners, the exchange limit regimes, Δω•τM, of Eu(1)^3+, Tb(1)^3+, Dy(1)^3+, and Ho(1)^3+ are all greater than 1. At higher fields, however, such as 4.7 T and 11.75 T, more lanthanide complexes have exchange limit regimes greater than 1, with Δω•τM increasing as field strength increases. Therefore, favorable MT contrast effects are available for a broad range of lanthanide-macrocylic complexes over a broad range of magnetic field strengths.

[3] = MT profiles (Z-profiles, CEST profiles) of Ln(1)^3+ complexes at 4.7 T; settings: for bound water position at which saturating RF pulse is directed: bulk water at 0 ppm, aqueous 62.5 mM, neutral pH, about 22° C.
Experimental: In a second experiment, MT profiles, also known as Z-profiles or CEST profiles, were obtained for lanthanide-macrocylic complexes of the general formula Ln(1)^3+. FIGS. 4-7 show representative spectra in the absence of saturation (bulk water peak at 0 ppm truncated to make the bound water peaks more visible) and MT profiles for Eu(1)^3+, Pr(1)^3+, Nd(1)^3+ and Yb(1)^3+ complexes, respectively, all measured at 4.7 T. All experiments were conducted using aqueous 62.5 mM Ln(1)^3+ adjusted to neutral pH and about 22° C., using an saturation duration time of 1 s, RF power of 16 db, and a 2.5 cm surface coil. […] Among these three complexes, Eu(1)^3+, shown in FIG. 4, had the greatest effect when the saturating pulse was centered at about 50 ppm (arrow): about a 60% decrease in the magnetization of bulk water, Ms, as compared to the magnetization of bulk water in the absence of a saturating pulse, Mo. Importantly, as indicated by a Ms/Mo of about 100%, when the counter-position (i.e., −50 ppm) was saturated, there was no distortion in the bulk water signal. Of course when the saturation pulse is directed to 0 ppm (arrow) there is no signal and therefore Ms/Mo is about 0%.

[4] = MT MR imaging of vial phantom with Ln(1)^3+ complexes at 4.7 T; settings: saturating bound water, 62.5 mM, neutral pH
Experimental: A third series of experiments was performed to examine the ability of lanthanide-macrocylic complexes of the general formula Ln(1)^3+ to enhance MRI contrast by MT. […] The inner vial contains 62.5 mM Eu(1)^3+ or Nd(1)^3+ at neutral pH, while the outer vial is pure water. T1-weighted spin-echo images (TR/TE=500/18 ms, 256×256 data matrix) were obtained at about 22° C. and a field strength of 4.7 T. MT was achieved by applying RF irradiation for 1 s, with a power of 16 db by using a 2.5 cm surface coil. […] The inner vial contains 62.5 mM Nd(1)^3+ at neutral pH, while the outer vial is pure water. The irradiation duration time was 2 s, with a power of 41 db by using a 2.5 cm surface coil.
These levels of contrast are much better than expected for diamagnetic CAs where the resonance signal of the NH or OH group undergoing chemical exchange is only a few ppm away from the resonance signal of bulk water.

[5] = MT profiles of Eu(2)^- complex versus pH and saturation power; settings: saturating bound water at about 57 ppm; 62.5 mM, 2 s, 41 db
Experimental: In a seventh experiment, MT profiles were obtained for 62.5 mM aqueous solutions of the Eu(2)^− lanthanide-macrocylic complex. A saturating RF pulse of 2 s at the resonance frequency of bound water or amide protons, with a power of 41 db, was applied to a 3.5 cm volume coil. […] The same set of data was plotted versus the bound water lifetime, τM^298, or the exchange limiting regime, Δω•τM, as shown in FIG. 17. The largest MT occurs for a Δω•τM ranging from about 12 to about 17, and optimally about 15.

[6] = 500 MHz 1H NMR spectrum of Eu(2)^- complex, exchangeable sites; settings: aqueous, pH 7.4, 25° C.
From the text: Two sites in the complex (denoted by the symbols *) are chemically exchangeable with bulk water (denoted by the symbol ? ): one is from Eu^3+-bound water at about 57 ppm, and another is from four equivalent amide protons on the pendent arms at about −6 ppm.

[7] = pH dependence of bound water and amide proton lifetimes τM^298 of Eu(2)^- by variable temperature 1H NMR line width fitting
Experimental: In a sixth series of experiments, the pH dependence of the bound water (FIG. 14) and the amide (FIG. 15) protons lifetimes, τM^298, were determined by variable temperature ^1H NMR line width fitting. The chemically exchangeable bound water and amide protons have different dependence on pH. For bound water protons, the slowest exchange, i.e., largest τM^298, takes place at pH 7 (FIG. 14). Moreover, the pH dependence may be divided into two linear ranges: an acidic range where τM^298=68.6*pH−172.5; and a basic range where τM^298=−128.2*pH+1212.6, respectively. For the amide protons, the slowest exchange is at pH 5.5 (FIG. 15).

[8] = 1H NMR spectra of Ln(9)^3+ complexes, exchangeable amide protons
From the text: For certain Ln(9)^3+ complexes, for example, with Ln equal to Yb or Tm, the bound water molecules are ^1H NMR invisible probably due to the fast exchange between the bound water and the bulk water. […] Unfortunately, the NMR signal was invisible, probably due to its fast exchange with the bulk water. However, the eight exchangeable amide protons present as two resonance peaks with equivalent intensity, at −14.5 (Ha) and −17.7 (Hb) ppm, respectively, are visible.

[9] = τM^298 from fit to bound-water 1H NMR line width
From the text: as §1

| Compound | δ, proton chemical shift of bound water [1] [ppm] | Δω●τM (exchange limit regime) ([2]; 4.7 T) | Δω●τM (exchange limit regime) ([2]; 11.75 T) | τM (bound water lifetime) [2] [μs] | Δω●τM (exchange limit regime) ([2]; 1.5 T) | further results |
| --- | --- | --- | --- | --- | --- | --- |
| CCOC(=O)CNC(=O)CN1CCN(CC(=O)NCC(=O)OCC)CCN(CC(=O)NCC(=O)OCC)CCN(CC(=O)NCC(=O)OCC)CC1.[Dy+3] [Dy(1)^3+] | −720 | 15.4 | 38.5 | 17 | – | Δω●τM (exchange limit regime) ([2]; 1.5 T, listed as Dy^3+): 4.9 |
| CCOC(=O)CNC(=O)CN1CCN(CC(=O)NCC(=O)OCC)CCN(CC(=O)NCC(=O)OCC)CCN(CC(=O)NCC(=O)OCC)CC1.[Er+3] [Er(1)^3+] | 200 | 2.3 | 5.7 | 9 | 0.7 | – |
| CCOC(=O)CNC(=O)CN1CCN(CC(=O)NCC(=O)OCC)CCN(CC(=O)NCC(=O)OCC)CCN(CC(=O)NCC(=O)OCC)CC1.[Eu+3] [Eu(1)^3+] | 50 | 24.0 | 60.0 | 382 | – | bound water position at which saturating RF pulse is directed [3]: +50 ppm; decrease in the magnetization of bulk water, Ms, compared to Mo ([3]; saturating pulse at about 50 ppm, 62.5 mM, 1 s, 16 db): ~60%; Ms/Mo when counter-position saturated ([3]; saturation at −50 ppm, 62.5 mM): about 100%; decrease in the bulk water signal in the inner vials (MT images) [4]: ~80%; Δω●τM (exchange limit regime) ([2]; 1.5 T, listed as Eu^3+): 7.7 |
| O=C([O-])CNC(=O)CN1CCN(CC(=O)NCC(=O)[O-])CCN(CC(=O)NCC(=O)[O-])CCN(CC(=O)NCC(=O)[O-])CC1.[Eu+3] [Eu(2)^−, LnDOTA-4AmC^−] | – | – | – | – | – | optimal Δω•τM for largest MT [5]: about 15; chemical shift of Eu^3+-bound water [6]: about 57 ppm; chemical shift of four equivalent amide protons on the pendent arms [6]: about −6 ppm; pH of slowest exchange (largest τM^298), bound water protons [7]: 7; pH of slowest exchange, amide protons [7]: 5.5; exchange limiting regimes (Δω•τM), bound water and amide protons ([7]; magnetic field strength of 4.7): > 1 |
| CCOC(=O)CNC(=O)CN1CCN(CC(=O)NCC(=O)OCC)CCN(CC(=O)NCC(=O)OCC)CCN(CC(=O)NCC(=O)OCC)CC1.[Ho+3] [Ho(1)^3+] | −360 | 8.6 | 21.5 | 19 | – | Δω●τM (exchange limit regime) ([2]; 1.5 T, listed as Ho^3+): 2.8 |
| CCOC(=O)CNC(=O)CN1CCN(CC(=O)NCC(=O)OCC)CCN(CC(=O)NCC(=O)OCC)CCN(CC(=O)NCC(=O)OCC)CC1.[Nd+3] [Nd(1)^3+] | −32 | 3.2 | 8.0 | 80 | 1.0 | decrease in the bulk water signal in the inner vials (MT images) [4]: ~80% |
| CCOC(=O)CNC(=O)CN1CCN(CC(=O)NCC(=O)OCC)CCN(CC(=O)NCC(=O)OCC)CCN(CC(=O)NCC(=O)OCC)CC1.[Pr+3] [Pr(1)^3+] | −60 | 1.5 | 3.8 | 20 | 0.5 | bound water position at which saturating RF pulse is directed [3]: −45 ppm |
| CCOC(=O)CNC(=O)CN1CCN(CC(=O)NCC(=O)OCC)CCN(CC(=O)NCC(=O)OCC)CCN(CC(=O)NCC(=O)OCC)CC1.[Sm+3] [Sm(1)^3+] | −4 | 1.6 | 4.0 | 320 | 0.5 | – |
| CCOC(=O)CNC(=O)CN1CCN(CC(=O)NCC(=O)OCC)CCN(CC(=O)NCC(=O)OCC)CCN(CC(=O)NCC(=O)OCC)CC1.[Tb+3] [Tb(1)^3+] | −600 | 23.4 | 58.5 | 31 | – | Δω●τM (exchange limit regime) ([2]; 1.5 T, listed as Tb^3+): 7.5 |
| CCOC(=O)CNC(=O)CN1CCN(CC(=O)NCC(=O)OCC)CCN(CC(=O)NCC(=O)OCC)CCN(CC(=O)NCC(=O)OCC)CC1.[Tm+3] [Tm(1)^3+] | 500 | 1.9 | 4.7 | 3 | 0.6 | – |
| NC(=O)CN1CCN(CC(N)=O)CCN(CC(N)=O)CCN(CC(N)=O)CC1.[Tm+3] [Tm(9)^3+] | – | – | – | – | – | chemical shift of amide protons, first set (Ha) [8]: −42 ppm; chemical shift of amide protons, second set (Hb) [8]: −52 ppm |
| CCOC(=O)CNC(=O)CN1CCN(CC(=O)NCC(=O)OCC)CCN(CC(=O)NCC(=O)OCC)CCN(CC(=O)NCC(=O)OCC)CC1.[Yb+3] [Yb(1)^3+] | 200 | 0.5 | 1.9 | 3 | 0.2 | τM^298 of bound water [9]: 5.8 μs |
